What is called Ki is the dissociation constant of the complex between target and ligand, obtained from inhibition or displacement.

Each structure is given as a SMILES string.

The target of the first experiment is T1, LRRK2 (Homo sapiens, UniProt Q5S007, G2019S).
T1 construct: purchased Invitrogen PV4882 (lot 567054A)
T1 sequence (Q5S007 whole entry G2019S): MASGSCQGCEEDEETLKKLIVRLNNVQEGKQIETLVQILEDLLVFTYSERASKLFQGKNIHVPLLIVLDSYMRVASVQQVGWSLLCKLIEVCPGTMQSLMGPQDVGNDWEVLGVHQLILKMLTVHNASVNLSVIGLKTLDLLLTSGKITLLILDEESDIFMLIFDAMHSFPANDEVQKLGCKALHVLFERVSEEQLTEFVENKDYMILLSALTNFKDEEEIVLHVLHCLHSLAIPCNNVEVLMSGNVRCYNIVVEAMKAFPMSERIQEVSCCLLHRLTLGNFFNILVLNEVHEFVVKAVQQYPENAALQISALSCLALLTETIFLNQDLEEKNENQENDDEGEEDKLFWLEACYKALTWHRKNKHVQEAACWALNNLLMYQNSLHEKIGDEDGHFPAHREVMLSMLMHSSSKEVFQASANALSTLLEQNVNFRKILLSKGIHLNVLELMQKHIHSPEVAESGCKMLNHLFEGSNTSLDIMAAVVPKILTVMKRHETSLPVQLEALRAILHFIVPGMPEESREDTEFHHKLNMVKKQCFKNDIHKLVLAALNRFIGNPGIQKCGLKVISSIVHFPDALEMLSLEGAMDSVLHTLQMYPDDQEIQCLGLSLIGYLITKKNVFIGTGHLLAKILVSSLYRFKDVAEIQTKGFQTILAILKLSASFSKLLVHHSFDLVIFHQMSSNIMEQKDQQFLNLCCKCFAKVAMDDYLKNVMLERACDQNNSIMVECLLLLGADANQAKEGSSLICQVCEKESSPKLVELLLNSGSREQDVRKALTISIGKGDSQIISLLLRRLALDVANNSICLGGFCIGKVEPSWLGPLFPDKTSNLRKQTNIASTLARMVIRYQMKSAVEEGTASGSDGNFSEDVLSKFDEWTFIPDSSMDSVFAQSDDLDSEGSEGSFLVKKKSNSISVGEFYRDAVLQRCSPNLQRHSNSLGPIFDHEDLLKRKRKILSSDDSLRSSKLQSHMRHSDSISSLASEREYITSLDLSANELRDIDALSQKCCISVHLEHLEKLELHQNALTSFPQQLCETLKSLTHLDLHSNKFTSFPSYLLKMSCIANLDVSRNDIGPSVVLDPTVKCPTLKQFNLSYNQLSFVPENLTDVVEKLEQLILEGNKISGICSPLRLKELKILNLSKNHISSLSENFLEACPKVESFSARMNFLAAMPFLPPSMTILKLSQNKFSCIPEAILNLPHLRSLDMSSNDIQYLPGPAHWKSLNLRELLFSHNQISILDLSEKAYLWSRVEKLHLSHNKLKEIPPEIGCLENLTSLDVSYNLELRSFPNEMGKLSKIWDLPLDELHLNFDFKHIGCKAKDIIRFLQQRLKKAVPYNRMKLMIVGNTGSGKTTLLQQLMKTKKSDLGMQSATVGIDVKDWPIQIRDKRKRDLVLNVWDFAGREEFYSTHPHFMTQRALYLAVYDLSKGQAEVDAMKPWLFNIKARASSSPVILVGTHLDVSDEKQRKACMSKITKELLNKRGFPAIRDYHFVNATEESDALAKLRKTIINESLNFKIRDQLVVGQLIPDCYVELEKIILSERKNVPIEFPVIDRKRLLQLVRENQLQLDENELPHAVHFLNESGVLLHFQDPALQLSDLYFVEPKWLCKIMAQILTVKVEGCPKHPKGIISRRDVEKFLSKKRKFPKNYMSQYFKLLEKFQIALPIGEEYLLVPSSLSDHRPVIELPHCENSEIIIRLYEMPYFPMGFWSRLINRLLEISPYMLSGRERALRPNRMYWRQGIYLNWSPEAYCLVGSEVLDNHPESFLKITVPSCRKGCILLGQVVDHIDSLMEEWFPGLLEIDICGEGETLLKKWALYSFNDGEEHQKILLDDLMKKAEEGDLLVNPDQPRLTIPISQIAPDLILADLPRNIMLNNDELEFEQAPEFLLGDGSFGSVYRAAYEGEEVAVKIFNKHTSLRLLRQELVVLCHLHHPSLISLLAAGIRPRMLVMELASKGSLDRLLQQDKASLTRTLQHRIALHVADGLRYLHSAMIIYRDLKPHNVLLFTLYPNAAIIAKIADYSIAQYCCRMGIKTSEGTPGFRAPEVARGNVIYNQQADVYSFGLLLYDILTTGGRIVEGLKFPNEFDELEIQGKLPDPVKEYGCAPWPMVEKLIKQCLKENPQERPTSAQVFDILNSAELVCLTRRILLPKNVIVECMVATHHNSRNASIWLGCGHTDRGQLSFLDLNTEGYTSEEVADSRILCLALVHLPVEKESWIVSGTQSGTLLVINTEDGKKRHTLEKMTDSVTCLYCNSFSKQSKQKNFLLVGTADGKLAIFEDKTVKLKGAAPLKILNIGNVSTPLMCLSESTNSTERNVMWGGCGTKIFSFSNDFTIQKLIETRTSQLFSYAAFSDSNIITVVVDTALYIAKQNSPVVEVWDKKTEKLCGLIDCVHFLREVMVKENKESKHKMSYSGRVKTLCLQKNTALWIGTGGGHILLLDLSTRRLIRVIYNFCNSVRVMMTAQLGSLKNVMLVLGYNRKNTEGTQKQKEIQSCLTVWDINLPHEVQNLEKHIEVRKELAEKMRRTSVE
Kind of experiment: In Vitro LRRK2 Assay (LabChip 3000, fluorescently-labeled peptide substrate, ATP). Type of experiment: biochemical. The conditions noted are these: Table 9; LRRK2 Ki (micromolar); read-out: LRRK2 Ki (KI). In short, it runs like this: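 LRRK2, fluorescent peptide substrate (diluted to 4 μM before mixing), ATP and compound were incubated 2 h in the dark, then stopped. Phosphorylated and unphosphorylated peptide were separated by capillary electrophoresis and quantified by fluorescence. Ki was fitted with a tight-binding equation including enzyme concentration, S and Km; IC50 or percent inhibition were also reported.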
For `CNc1nc(Nc2cn(-c3ccc(Cl)cc3)nc2C)ncc1C#N` [Example 368, 2-(1-(4-chlorophenyl)-3-methyl-1H-pyrazol-4-ylamino)-4-(methylamino) pyrimidine-5-carbonitrile], the Ki was found to be 82 nM.

On to `CCNc1nc(Nc2cnn(CC)c2C)ncc1C#N` [Example 363, 2-(1-ethyl-5-methyl-1H-pyrazol-4-ylamino)-4-(ethylamino) pyrimidine-5-carbonitrile], for which the Ki is 6 nM. On the same count and under the same terms, then `CCNc1nc(Nc2cn(C3CCOCC3)nc2C)ncc1C#N` [Example 372, 4-(ethylamino)-2-(3-methyl-1-(tetrahydro-2H-pyran-4-yl)-1H-pyrazol-4-ylamino) pyrimidine-5-carbonitrile], with 24 nM; and `CCNc1nc(Nc2cn(C3COC3)nc2C)ncc1C#N` [Example 373, 4-(ethylamino)-2-(3-methyl-1-(oxetan-3-yl)-1H-pyrazol-4-ylamino) pyrimidine-5-carbonitrile], with 22.8 nM. Still for that read-out and setting: then `CCCn1ncc(Nc2ncc(C#N)c(NC)n2)c1C` [Example 366, 2-(5-methyl-1-propyl-1H-pyrazol-4-ylamino)-4-(methylamino) pyrimidine-5-carbonitrile], with 5.4 nM; and `CNc1nc(Nc2cn(C3COC3)nc2C)ncc1C#N` [Example 389, 4-Methylamino-2-(3-methyl-1-oxetan-3-yl-1H-pyrazol-4-ylamino)-pyrimidine-5-carbonitrile], with 37.2 nM. Consider `CNc1nc(Nc2cn(C3CCN(CC(F)(F)F)CC3)nc2C)ncc1C#N` [Example 355, 2-(3-methyl-1-(1-(2,2,2-trifluoroethyl)piperidin-4-yl)-1H-pyrazol-4-ylamino)-4-(methylamino) pyrimidine-5-carbonitrile], for which the inhibitory constant (Ki) turned out to be 299 nM. As to `CNc1nc(Nc2cn(CC3CC3)nc2C)ncc1C#N` [Example 380, 2-(1-(cyclopropylmethyl)-3-methyl-1H-ylamino)-4-(methylamino) pyrimidine-5-carbonitrile], the Ki is 45 nM. Same read-out and setting: then `CNc1nc(Nc2cn(-c3cc(F)cc(F)c3)nc2C)ncc1C#N` [Example 367, 2-(1-(3,5-difluorophenyl)-3-methyl-1H-pyrazol-4-ylamino)-4-(methylamino) pyrimidine-5-carbonitrile], with 1.8 nM.

Staying with this experiment, now noted: Table 10; LRRK2 Ki (micromolar); read-out: LRRK2 Ki (KI).
For the molecule `CNc1nc(Nc2cn(C(C)(C)C(=O)NC(C)(C)C)nc2C)ncc1C(F)(F)F` [Example 423, N-tert-butyl-2-methyl-2-(3-methyl-4-(4-(methylamino)-5-(trifluoromethyl)pyrimidin-2-ylamino)-1H-pyrazol-1-yl)propanamide], the Ki worked out at 73 nM. Still for that read-out and setting: the result for `CNc1nc(Nc2cnn([C@@H](C)C(=O)N(C)C)c2C)ncc1C(F)(F)F` [Example 414, (S)-N,N-dimethyl-2-(5-methyl-4-(4-(methylamino)-5-(trifluoromethyl)pyrimidin-2-ylamino)-1H-pyrazol-1-yl)propanamide] reads 30 nM.

Take `CNc1nc(Nc2cnn(C(C)(C)C#N)c2Cl)ncc1C(F)(F)F` [Example 418, 2-(5-chloro-4-(4-(methylamino)-5-(trifluoromethyl)pyrimidin-2-ylamino)-1H-pyrazol-1-yl)-2-methylpropanenitrile]: the inhibition constant (Ki) was 1.9 nM. Still for that read-out and setting: the result for `CNc1nc(Nc2cn([C@H](C)C(=O)N3CCCC3)nc2C)ncc1C(F)(F)F` [Example 403, (R)-2-(3-methyl-4-(4-(methylamino)-5-(trifluoromethyl)pyrimidin-2-ylamino)-1H-pyrazol-1-yl)-1-(pyrrolidin-l-yl)propan-1-one] reads 16 nM; that for `CNc1nc(Nc2cn([C@@H](C)C(=O)N3CCCC3)nc2C)ncc1C(F)(F)F` [Example 405, (S)-2-(3-methyl-4 (4-(methylamino)-5-(trifluoromethyl)pyrimidin-2-ylamino)-1H-pyrazol-1-yl)-1-(pyrrolidin-1-yl)propan-1-one], 22 nM; that for `CNc1nc(Nc2cnn([C@H](C)C(=O)N3CCCC3)c2C)ncc1C(F)(F)F` [Example 411, (R)-2-(5-methyl-4-(4-(methylamino)-5-(trifluoromethyl)pyrimidin-2-ylamino)-1H-pyrazol-1-yl)-1-(pyrrolidin-1-yl)propan-1-one], 39 nM. For the molecule `CNc1nc(Nc2cn([C@@H](C)C(=O)N(C)C)nc2C)ncc1C(F)(F)F` [Example 436, (S)-N,N-Dimethyl-2-[3-methyl-4-(4-methylamino-5-trifluoromethyl-pyrimidin-2-ylamino)-pyrazol-1-yl]-propionamide], the inhibition constant Ki was found to be 30.3 nM. `CNc1nc(Nc2cnn([C@H](C)C#N)c2C)ncc1C(F)(F)F` [Example 439, (R)-2-[5-Methyl-4-(4-methylamino-5-trifluoromethyl-pyrimidin-2-ylamino)-pyrazol-1-yl]-propionitrile]: the inhibition constant Ki was 1.6 nM. Turning to `CCc1nn(C(C)(C)C#N)cc1Nc1ncc(C(F)(F)F)c(NC)n1` [Example 410, 2-(3-ethyl-4-(4-(methylamino)-5-(trifluoromethyl)pyrimidin-2-ylamino)-1H-pyrazol-1-yl)-2-methylpropanenitrile], the inhibition constant (Ki) worked out at 10 nM.

Staying with this experiment, now noted: read-out: LRRK2 Ki (KI), Table 7.
Consider `CNc1nc(Nc2cn(C3COC3)nc2C)ncc1Cl` [Example 27, 5-Chloro-N^4-methyl-N^2-(3-methyl-1-(oxetan-3-yl)-1H-pyrazol-4-yl)pyrimidine-2,4-diamine], for which the Ki came to 8.8 nM. Regarding `CCNc1nc(Nc2cn(C3CCN(CC4OCCO4)CC3)nc2C)ncc1C(F)(F)F` [Example 88, N^2-[1-(1-[1,3]Dioxolan-2-ylmethyl-piperidin-4-yl)-3-methyl-1H-pyrazol-4-yl]-N^4-ethyl-5-trifluoromethyl-pyrimidine-2,4-diamine], the Ki worked out at 9.4 nM.

With `COCCn1ncc(Nc2ncc(Cl)c(OC)n2)c1C` [Example 20, 5-chloro-4-methoxy-N-(1-(2-methoxyethyl)-5-methyl-1H-pyrazol-4-yl)pyrimidin-2-amine], the Ki came to 19 nM. As to `CNc1nc(Nc2cc(C3CC3)nn2C)ncc1Cl` [Example 45, 5-Chloro-N^2-(5-cyclopropyl-2-methyl-2H-pyrazol-3-yl)-N^4-methyl-pyrimidine-2,4-diamine], the Ki was found to be 13.4 nM. Regarding `COc1nc(Nc2cnn(-c3ccc(C#N)cc3)c2C)ncc1Cl` [Example 83, 4-[4-(5-Chloro-4-methoxy-pyrimidin-2-ylamino)-5-methyl-pyrazol-1-yl]-benzonitrile], the Ki stood at 9 nM. The same measure, in the same setting: the result for `Cc1c(Nc2ncc(Cl)c(OCC(F)F)n2)cnn1C` [Example 63, 5-chloro-4-(2,2-difluoroethoxy)-N-(1,5-dimethyl-1H-pyrazol-4-yl)pyrimidin-2-amine] reads 24 nM.

The same experiment, now with this note: read-out: LRRK2 Ki (KI), Table 8.
Turning to `COc1nc(Nc2cnn(C3CCN(CCF)CC3)c2C)ncc1Cl` [Example 292, (5-Chloro-4-methoxy-pyrimidin-2-yl)-{1-[1-(2-fluoro-ethyl)-piperidin-4-yl]-5-methyl-1H-pyrazol-4-yl}-amine], the Ki came to 4.2 nM. Still for that read-out and setting: then `CCNc1nc(Nc2cn([C@H]3CCCN(C4COC4)C3)nc2C)ncc1C(F)(F)F` [Example 308, N4-Ethyl-N2-[3-methyl-1-((S)-1-oxetan-3-yl-piperidin-3-yl)-1H-pyrazol-4-yl]-5-trifluoromethyl-pyrimidine-2,4-diamine], with 8.5 nM. Regarding `CNc1nc(Nc2cnn(C3CC(C)OC(C)C3)c2C)ncc1C(F)(F)F` (stereo not drawn) [Example 272, N2-[1-(2,6-Dimethyl-tetrahydro-pyran-4-yl)-5-methyl-1H-pyrazol-4-yl]-N4-methyl-5-trifluoromethyl-pyrimidine-2,4-diamine], the Ki is 5.1 nM. In the case of `CNc1nc(Nc2cnn(C3CN(C(C)C)C3)c2C)ncc1C(F)(F)F` [Example 278, N2-[1-(1-Isopropyl-azetidin-3-yl)-5-methyl-1H-pyrazol-4-yl]-N4-methyl-5-trifluoromethyl-pyrimidine-2,4-diamine], the inhibitory constant (Ki) was 1.2 nM.

On to `CNc1nc(Nc2cn(C(F)F)nc2C)ncc1C(F)(F)F` [Example 105, N2-(1-(difluoromethyl)-3-methyl-1H-pyrazol-4-yl)-N4-methyl-5-(trifluoromethyl) pyrimidine-2,4-diamine], for which the Ki is 5.5 nM. Turning to `CNc1nc(Nc2cnn(C(F)F)c2C)ncc1Br` [Example 255, 5-Bromo-N2-(1-difluoromethyl-5-methyl-1H-pyrazol-4-yl)-N4-methyl-pyrimidine-2,4-diamine], the Ki came out at 0.7 nM. `CNc1nc(Nc2cn(C(C)C)nc2C)ncc1Br` [Example 121, 5-bromo-N2-(1-isopropyl-3-methyl-1H-pyrazol-4-yl)-N4-methylpyrimidine-2,4-diamine]: the inhibitory constant (Ki) stood at 3.1 nM. On the same count and under the same terms, the result for `CCCn1cc(Nc2ncc(Br)c(NC)n2)c(C)n1` [Example 113, 5-bromo-N4-methyl-N2-(3-methyl-1-propyl-1H-pyrazol-4-yl)pyrimidine-2,4-diamine] reads 12 nM; that for `Cc1c(Nc2ncc(C(F)(F)F)c(NC3CC3)n2)cnn1S(C)(=O)=O` [Example 301, N4-Cyclopropyl-N2-(1-methanesulfonyl-5-methyl-1H-pyrazol-4-yl)-5-trifluoromethyl-pyrimidine-2,4-diamine], 2.1 nM; that for `CNc1nc(Nc2nn(C3CCN(C)CC3)cc2C)ncc1C(F)(F)F` [Example 141, N4-methyl-N2-(4-methyl-1-(1-methylpiperidin-4-yl)-1H-pyrazol-3-yl)-5-(trifluoromethyl) pyrimidine-2,4-diamine], 41 nM. Consider `CNc1nc(Nc2cn(Cc3ncccn3)nc2C)ncc1C(F)(F)F` [Example 304, N4-Methyl-N2-(3-methyl-1-pyrimidin-2-ylmethyl-1H-pyrazol-4-yl)-5-trifluoromethyl-pyrimidine-2,4-diamine], for which the inhibition constant (Ki) amounted to 5.1 nM. Same read-out and setting: the result for `CNc1nc(Nc2cn(C3CCOC3)nc2C)ncc1C(F)(F)F` (stereo not drawn) [Example 149, N4-methyl-N2-(3-methyl-1-(tetrahydrofuran-3-yl)-1H-pyrazol-4-yl)-5-(trifluoromethyl) pyrimidine-2,4-diamine] reads 6.8 nM.

These data come from US8815882B2, “Pyrazole aminopyrimidine derivatives as LRRK2 modulators” (Genentech, Inc., priority 2010, dated 2014).
